Measurements as given in patent US8012967B2, “Minor groove binders” (University of Strathclyde, priority 2006, dated 2011).
Values after ≈ are worked out from the molar mass of the structure shown. Like-named read-outs stand apart in the source and are kept apart here.

What was measured:
[1] = test system: clinical strains of S. aureus in the Scottish Clinical Isolates Collection; assay: MIC against collected clinical strains of S. aureus (BSAC03/04/05 (1)-(10)); type: cell-based, Staphylococcus aureus
From the text: (§1) In particular, minimum inhibitory concentrations (MICs) against microorganisms (e.g. S. Aureus, Streptococcus faecalis, Aspergillus niger, Candida albicans or Mycobacterium fortuitum) for compounds of the invention may be measured using procedures such as those described in A. J. Drummond and R. D. Waigh “The development of microbiological methods for phytochemical screening” Recent Res. Devel. Phytochem. 4, 143-152 (2000), the disclosures of which document are hereby incorporated by reference.
(§2) Sample dilutions were typically prepared by dissolving the test sample (2 mg) in sterile water (10 mL) to provide a working concentration of 200 μg/ml. The test wells on each 96 well microtitre plate were initially inoculated with culture medium (100 μL) using Mueller-Hinton Broth for antibacterial assays and Sabouraud Broth for antifungal assays. A solution of each test sample (100 μL) was added to one row of each plate and a series of doubling dilutions made for successive rows. Incubation was at 37° C. for antibacterial assay and 25° C. for antifungal assay. […] From the observed pattern of colour, the MIC was determined. All tests included sterility and growth controls.
BSAC03/04/05 (1)-(10) refer to collected clinical strains of S. aureus in the Scottish Clinical Isolates Collection.

[2] = test system: Mycobacter fortuitum (NCTC 10394); assay: MIC, Mycobacter fortuitum; type: cell-based; details: for MIC: read-out: Minimum inhibitory concentrations (MICs), M. fortuitum
Protocol: (§3) The effects of compounds of the invention in relation to inhibiting the growth of various microorganisms was determined using methods known to those skilled in the art, for example in vitro methods as described in J. Med. Chem. 47, 2133-2156 (2004) and in vivo methods as described in J. Med. Microbiol. 46, 208-213 (1997), the disclosures of which documents are hereby incorporated by reference. In particular, minimum inhibitory concentrations (MICs) against microorganisms (e.g. S. Aureus, Streptococcus faecalis, Aspergillus niger, Candida albicans or Mycobacterium fortuitum) for compounds of the invention may be measured using procedures such as those described in A. J. Drummond and […] development of microbiological methods for phytochemical screening” Recent Res. Devel. […] The test wells on each 96 well microtitre plate were initially inoculated with culture medium (100 μL) using Mueller-Hinton Broth for antibacterial assays and Sabouraud Broth for antifungal assays. A solution of each test sample (100 μL) was added to one row of each plate and a series of doubling dilutions made for successive rows. Incubation was at 37° C. for antibacterial assay and 25° C. for antifungal assay. […] From the observed pattern of colour, the MIC was determined. All tests included sterility and growth controls.

[3] = test system: Streptococcus faecalis (NCTC 775); assay: MIC, Streptococcus faecalis; type: cell-based; details: for MIC: read-out: Minimum inhibitory concentrations (MICs), St. faecalis
Protocol: as §3

[4] = test system: Staphylococcus aureus Strain 1 (BSAC04(1)) (Clinical isolate from Glasgow Royal Infirmary); assay: MIC, Staphylococcus aureus Strain 1; type: cell-based; details: for MIC: read-out: Minimum inhibitory concentrations (MICs), S aureus 1
Protocol: The effects of compounds of the invention in relation to inhibiting the growth of various microorganisms was determined using methods known to those skilled in the art, for example in vitro methods as described in J. Med. Chem. 47, 2133-2156 (2004) and in vivo methods as described in J. Med. Microbiol. 46, 208-213 (1997), the disclosures of which documents are hereby incorporated by reference.
as §1, §2

[5] = test system: Candida albicans (NCPF3179); assay: MIC, Candida albicans; type: cell-based; details: for MIC: read-out: Minimum inhibitory concentrations (MICs), C. albicans
Protocol: as §3

[6] = test system: Aspergillus niger (IMI 1745); assay: MIC, Aspergillus niger; type: cell-based; details: for MIC: read-out: Minimum inhibitory concentrations (MICs), A. niger
Protocol: as §3

[7] = test system: Staphylococcus aureus Strain 2 (NCTC 6571); assay: MIC, Staphylococcus aureus Strain 2; type: cell-based; details: for MIC: read-out: Minimum inhibitory concentrations (MICs), S. aureus 2
Protocol: as §3

DNA = details: background statement, cited from earlier work; for DNA sequence preference: result in words; for Kd: read-out: dissociation constants (binding to DNA)
[8] = value in parentheses, na = not active
[9] = Mycolicibacterium fortuitum, NCTC10394, value in parentheses, na = not active
[10] = Mycolicibacterium fortuitum, NCTC10394, value outside parentheses
[11] = Enterococcus faecalis, NCTC775, value in parentheses, na = not active
[12] = Enterococcus faecalis, NCTC775, value outside parentheses
[13] = Staphylococcus aureus, value in parentheses, na = not active
[14] = Staphylococcus aureus, value outside parentheses
[15] = Candida albicans, NCPF3179, value in parentheses, na = not active
[16] = Candida albicans, NCPF3179, value outside parentheses
[17] = Aspergillus niger, value in parentheses, na = not active
[18] = Aspergillus niger, value outside parentheses

## COc1ccc(/C=C/c2ccc(C(=O)Nc3cc(C(=O)Nc4cc(C(=O)NCCN5CCOCC5)n(C)c4)n(C)c3)cn2)cc1 [Example 22]
[1]; S. aureus BSAC culture year 2003 number 1
  Minimum inhibitory concentrations (MICs): 0.5 µg/mL (≈ 0.817 µM)
[1]; S. aureus BSAC culture year 2003 number 2
  Minimum inhibitory concentrations (MICs): 4 µg/mL (≈ 6.54 µM)
[1]; S. aureus BSAC culture year 2003 number 3
  Minimum inhibitory concentrations (MICs): 0.5 µg/mL (≈ 0.817 µM)
[1]; S. aureus BSAC culture year 2003 number 4
  Minimum inhibitory concentrations (MICs): 0.5 µg/mL (≈ 0.817 µM)
[1]; S. aureus BSAC culture year 2003 number 5
  Minimum inhibitory concentrations (MICs): 0.5 µg/mL (≈ 0.817 µM)
[1]; S. aureus BSAC culture year 2003 number 6
  Minimum inhibitory concentrations (MICs): 1 µg/mL (≈ 1.63 µM)
[1]; S. aureus BSAC culture year 2003 number 7
  Minimum inhibitory concentrations (MICs): 0.5 µg/mL (≈ 0.817 µM)
[1]; S. aureus BSAC culture year 2003 number 8
  Minimum inhibitory concentrations (MICs): 0.5 µg/mL (≈ 0.817 µM)
[1]; S. aureus BSAC culture year 2003 number 9
  Minimum inhibitory concentrations (MICs): 2 µg/mL (≈ 3.27 µM)
[1]; S. aureus BSAC culture year 2003 number 10
  Minimum inhibitory concentrations (MICs): 0.5 µg/mL (≈ 0.817 µM)
[1]; S. aureus BSAC culture year 2004 number 1
  Minimum inhibitory concentrations (MICs): 0.5 µg/mL (≈ 0.817 µM)
[1]; S. aureus BSAC culture year 2004 number 2
  Minimum inhibitory concentrations (MICs): 4 µg/mL (≈ 6.54 µM)
[1]; S. aureus BSAC culture year 2004 number 3
  Minimum inhibitory concentrations (MICs): 2 µg/mL (≈ 3.27 µM)
[1]; S. aureus BSAC culture year 2004 number 4
  Minimum inhibitory concentrations (MICs): 2 µg/mL (≈ 3.27 µM)
[1]; S. aureus BSAC culture year 2004 number 5
  Minimum inhibitory concentrations (MICs): 0.5 µg/mL (≈ 0.817 µM)
[1]; S. aureus BSAC culture year 2004 number 6
  Minimum inhibitory concentrations (MICs): 0.5 µg/mL (≈ 0.817 µM)
[1]; S. aureus BSAC culture year 2004 number 7
  Minimum inhibitory concentrations (MICs): 1 µg/mL (≈ 1.63 µM)
[1]; S. aureus BSAC culture year 2004 number 8
  Minimum inhibitory concentrations (MICs): 1 µg/mL (≈ 1.63 µM)
[1]; S. aureus BSAC culture year 2004 number 9
  Minimum inhibitory concentrations (MICs): 2 µg/mL (≈ 3.27 µM)
[1]; S. aureus BSAC culture year 2004 number 10
  Minimum inhibitory concentrations (MICs): 1 µg/mL (≈ 1.63 µM)
[1]; S. aureus BSAC culture year 2005 number 1
  Minimum inhibitory concentrations (MICs): 2 µg/mL (≈ 3.27 µM)
[1]; S. aureus BSAC culture year 2005 number 2
  Minimum inhibitory concentrations (MICs): 8 µg/mL (≈ 13.1 µM)
[1]; S. aureus BSAC culture year 2005 number 3
  Minimum inhibitory concentrations (MICs): 2 µg/mL (≈ 3.27 µM)
[1]; S. aureus BSAC culture year 2005 number 4
  Minimum inhibitory concentrations (MICs): 0.5 µg/mL (≈ 0.817 µM)
[1]; S. aureus BSAC culture year 2005 number 5
  Minimum inhibitory concentrations (MICs): 4 µg/mL (≈ 6.54 µM)
[1]; S. aureus BSAC culture year 2005 number 6
  Minimum inhibitory concentrations (MICs): 0.5 µg/mL (≈ 0.817 µM)
[1]; S. aureus BSAC culture year 2005 number 7
  Minimum inhibitory concentrations (MICs): 0.5 µg/mL (≈ 0.817 µM)
[1]; S. aureus BSAC culture year 2005 number 8
  Minimum inhibitory concentrations (MICs): 4 µg/mL (≈ 6.54 µM)
[1]; S. aureus BSAC culture year 2005 number 9
  Minimum inhibitory concentrations (MICs): 2 µg/mL (≈ 3.27 µM)
[1]; S. aureus BSAC culture year 2005 number 10
  Minimum inhibitory concentrations (MICs): 1 µg/mL (≈ 1.63 µM)
[1]; result in words
  microbicidal activity against a number of different strains of Staphylococcus aureus: displayed microbicidal activity
[2]; [8]
  Minimum inhibitory concentrations (MICs), M. fortuitum: 50 µg/mL (≈ 81.7 µM)
[2]; value outside parentheses
  MIC: 69 µM
[3]; [8]
  Minimum inhibitory concentrations (MICs), St. faecalis: 6.3 µg/mL (≈ 10.3 µM)
[3]; value outside parentheses
  MIC: 8.6 µM
[4]; [8]
  Minimum inhibitory concentrations (MICs), S aureus 1: 0.5 µg/mL (≈ 0.817 µM)
[4]; value outside parentheses
  MIC: 0.69 µM
[5]; [8]
  Minimum inhibitory concentrations (MICs), C. albicans: 25 µg/mL (≈ 40.9 µM)
[5]; value outside parentheses
  MIC: 34 µM
[6]; [8]
  Minimum inhibitory concentrations (MICs), A. niger: 50 µg/mL (≈ 81.7 µM)
[6]; value outside parentheses
  MIC: 69 µM
[7]; [8]
  Minimum inhibitory concentrations (MICs), S. aureus 2: 12.5 µg/mL (≈ 20.4 µM)
[7]; value outside parentheses
  MIC: 17.2 µM

## COc1ccc(/C=C/c2ccc3cc(C(=O)Nc4cc(C(=O)Nc5cc(C(=O)NCCN6CCOCC6)n(C)c5)n(C)c4)ccc3n2)cc1 [Example 23, 2-[(E)-2-(4-Methoxyphenyl)ethenyl]-N-[1-methyl-5-({[1-methyl-5-({[2-(4-morpholinyl)ethyl]amino}carbonyl)-1H-pyrrol-3-yl]amino}carbonyl)-1H-pyrrol-3-yl]-6-quinolinecarboxamide]
[2]; [9]
  MIC: 100 µg/mL
[2]; [10]
  MIC: 129 µM
[3]; [11]
  MIC: 25 µg/mL
[3]; [12]
  MIC: 32 µM
[4]; [13]
  MIC: 4 µg/mL
[4]; [14]
  MIC: 5.2 µM
[5]; [15]
  MIC: 100 µg/mL
[5]; [16]
  MIC: 129 µM
[6]; [17]
  MIC: 50 µg/mL
[6]; [18]
  MIC: 64 µM

## CSc1ccc(/C=C/c2ccc(C(=O)Nc3cc(C(=O)Nc4cc(C(=O)NCCN5CCOCC5)n(C)c4)n(C)c3)cn2)cc1 [Example 25, N-[1-methyl-5-({[1-methyl-5-({[2-(4-morpholinyl)ethyl]amino}carbonyl)-1H-pyrrol-3-yl]amino}carbonyl)-1H-pyrrol-3-yl]-6-{(E)-2-[4-(methylsulfanyl)-phenyl]ethenyl}nicotinamide]
[2]; [9]
  MIC: 100 µg/mL
[2]; [10]
  MIC: 135 µM
[3]; [11]
  MIC: 25 µg/mL
[3]; [12]
  MIC: 34 µM
[4]; [13]
  MIC: 0.5 µg/mL
[4]; [14]
  MIC: 0.67 µM
[5]; [15]
  MIC: 50 µg/mL
[5]; [16]
  MIC: 67 µM
[6]; [17]
  MIC: 100 µg/mL
[6]; [18]
  MIC: 135 µM
[7]; Staphylococcus aureus, NCTC6571, value in parentheses, na = not active
  MIC: 50 µg/mL
[7]; Staphylococcus aureus, NCTC6571, value outside parentheses
  MIC: 67 µM

## Cn1cc(NC(=O)c2cc(NC(=O)CN=C(N)N)cn2C)cc1C(=O)NCCC(=N)N [Netropsin, netropsin]
DNA
  DNA sequence preference: preference for AT-rich regions of DNA
  Kd: ~10 µM

## Cn1cc(NC(=O)c2cc(NC(=O)c3cc(NC=O)cn3C)cn2C)cc1C(=O)NCCC(=N)N [distamycin]
DNA
  DNA sequence preference: preference for AT-rich regions of DNA
  Kd: ~10 µM
